Tested on: hemizygous PMP22 transgenic rat (CMT rat)
Test: Morphometrical analysis of hindlimb tissues and body weight in CMT rats
Details: CMT female rats, end of study, versus control WT rats

## Cn1cc[nH]c1=S [Methimazole]
  deficiencies of sciatic nerve and soleus muscle masses: completely corrected

From patent US8992891B2, “Therapeutic approaches for treating CMT and related disorders” (Pharnext, priority 2007, dated 2015)
